Reference: PMC11968843, “Sulphostin-inspired N-phosphonopiperidones as selective covalent DPP8 and DPP9 inhibitors” (Nature Communications, 2025)

Key:
Experiment in all cases: Competitive ABPP / direct target identification with alkyne probe 9 in HEK293 cell lysates
Assay type in all cases: binding, H. sapiens
[1] = biological target: T1, HEK293 cell lysates (proteome-wide targets of probe 9) (Homo sapiens, UniProt O00295); conditions: protein TULP2
T1 construct: endogenous in cells; host or cells: HEK293 cell lysate

[2] = biological target: T2, HEK293 cell lysates (proteome-wide targets of probe 9) (Homo sapiens, UniProt O43175); conditions: protein PHGDH
T2 construct: endogenous in cells; host or cells: HEK293 cell lysate

[3] = biological target: T3, HEK293 cell lysates (proteome-wide targets of probe 9) (Homo sapiens, UniProt P00558); conditions: protein PGK1
T3 construct: endogenous in cells; host or cells: HEK293 cell lysate

[4] = biological target: T4, HEK293 cell lysates (proteome-wide targets of probe 9) (Homo sapiens, UniProt P05387); conditions: protein RPLP2
T4 construct: endogenous in cells; host or cells: HEK293 cell lysate

[5] = biological target: T5, HEK293 cell lysates (proteome-wide targets of probe 9) (Homo sapiens, UniProt P05455); conditions: protein SSB
T5 construct: endogenous in cells; host or cells: HEK293 cell lysate

[6] = biological target: T6, HEK293 cell lysates (proteome-wide targets of probe 9) (Homo sapiens, UniProt P07737); conditions: protein PFN1
T6 construct: endogenous in cells; host or cells: HEK293 cell lysate

[7] = biological target: T7, HEK293 cell lysates (proteome-wide targets of probe 9) (Homo sapiens, UniProt P08865); conditions: protein RPSA
T7 construct: endogenous in cells; host or cells: HEK293 cell lysate

[8] = biological target: T8, HEK293 cell lysates (proteome-wide targets of probe 9) (Homo sapiens, UniProt P09651); conditions: protein HNRNPA1
T8 construct: endogenous in cells; host or cells: HEK293 cell lysate

[9] = biological target: T9, HEK293 cell lysates (proteome-wide targets of probe 9) (Homo sapiens, UniProt P11021); conditions: protein HSPA5
T9 construct: endogenous in cells; host or cells: HEK293 cell lysate

[10] = biological target: T10, HEK293 cell lysates (proteome-wide targets of probe 9) (Homo sapiens, UniProt P11586); conditions: protein MTHFD1
T10 construct: endogenous in cells; host or cells: HEK293 cell lysate

[11] = biological target: T11, HEK293 cell lysates (proteome-wide targets of probe 9) (Homo sapiens, UniProt P14174); conditions: protein MIF
T11 construct: endogenous in cells; host or cells: HEK293 cell lysate

[12] = biological target: T12, HEK293 cell lysates (proteome-wide targets of probe 9) (Homo sapiens, UniProt P19338); conditions: protein NCL
T12 construct: endogenous in cells; host or cells: HEK293 cell lysate

[13] = biological target: T13, HEK293 cell lysates (proteome-wide targets of probe 9) (Homo sapiens, UniProt P22314); conditions: protein UBA1
T13 construct: endogenous in cells; host or cells: HEK293 cell lysate

[14] = biological target: T14, HEK293 cell lysates (proteome-wide targets of probe 9) (Homo sapiens, UniProt P23526); conditions: protein AHCY
T14 construct: endogenous in cells; host or cells: HEK293 cell lysate

[15] = biological target: T15, HEK293 cell lysates (proteome-wide targets of probe 9) (Homo sapiens, UniProt P26641); conditions: protein EEF1G
T15 construct: endogenous in cells; host or cells: HEK293 cell lysate

[16] = biological target: T16, HEK293 cell lysates (proteome-wide targets of probe 9) (Homo sapiens, UniProt P37802); conditions: protein TAGLN2
T16 construct: endogenous in cells; host or cells: HEK293 cell lysate

[17] = biological target: T17, HEK293 cell lysates (proteome-wide targets of probe 9) (Homo sapiens, UniProt P42704); conditions: protein LRPPRC
T17 construct: endogenous in cells; host or cells: HEK293 cell lysate

[18] = biological target: T18, HEK293 cell lysates (proteome-wide targets of probe 9) (Homo sapiens, UniProt P48147); conditions: protein PREP (Prolyl endopeptidase)
T18 construct: endogenous in cells; host or cells: HEK293 cell lysate

[19] = biological target: T19, HEK293 cell lysates (proteome-wide targets of probe 9) (Homo sapiens, UniProt P50990); conditions: protein CCT8
T19 construct: endogenous in cells; host or cells: HEK293 cell lysate

[20] = biological target: T20, HEK293 cell lysates (proteome-wide targets of probe 9) (Homo sapiens, UniProt P52292); conditions: protein KPNA2
T20 construct: endogenous in cells; host or cells: HEK293 cell lysate

[21] = biological target: T21, HEK293 cell lysates (proteome-wide targets of probe 9) (Homo sapiens, UniProt P60842); conditions: protein EIF4A1
T21 construct: endogenous in cells; host or cells: HEK293 cell lysate

[22] = biological target: T22, HEK293 cell lysates (proteome-wide targets of probe 9) (Homo sapiens, UniProt P60866); conditions: protein RPS20
T22 construct: endogenous in cells; host or cells: HEK293 cell lysate

[23] = biological target: T23, HEK293 cell lysates (proteome-wide targets of probe 9) (Homo sapiens, UniProt P62258); conditions: protein YWHAE
T23 construct: endogenous in cells; host or cells: HEK293 cell lysate

[24] = biological target: T24, HEK293 cell lysates (proteome-wide targets of probe 9) (Homo sapiens, UniProt P62829); conditions: protein RPL23
T24 construct: endogenous in cells; host or cells: HEK293 cell lysate

[25] = biological target: T25, HEK293 cell lysates (proteome-wide targets of probe 9) (Homo sapiens, UniProt P63261); conditions: protein ACTG1
T25 construct: endogenous in cells; host or cells: HEK293 cell lysate

[26] = biological target: T26, HEK293 cell lysates (proteome-wide targets of probe 9) (Homo sapiens, UniProt P78371); conditions: protein CCT2
T26 construct: endogenous in cells; host or cells: HEK293 cell lysate

[27] = biological target: T27, HEK293 cell lysates (proteome-wide targets of probe 9) (Homo sapiens, UniProt P83731); conditions: protein RPL24
T27 construct: endogenous in cells; host or cells: HEK293 cell lysate

[28] = biological target: T28, HEK293 cell lysates (proteome-wide targets of probe 9) (Homo sapiens, UniProt Q01469); conditions: protein FABP5
T28 construct: endogenous in cells; host or cells: HEK293 cell lysate

[29] = biological target: T29, HEK293 cell lysates (proteome-wide targets of probe 9) (Homo sapiens, UniProt Q06830); conditions: protein PRDX1
T29 construct: endogenous in cells; host or cells: HEK293 cell lysate

[30] = biological target: T30, HEK293 cell lysates (proteome-wide targets of probe 9) (Homo sapiens, UniProt Q5T749); conditions: protein KPRP
T30 construct: endogenous in cells; host or cells: HEK293 cell lysate

[31] = biological target: T31, HEK293 cell lysates (proteome-wide targets of probe 9) (Homo sapiens, UniProt Q96RQ3); conditions: protein MCCC1
T31 construct: endogenous in cells; host or cells: HEK293 cell lysate

Question: Which results are given for `C#CCCCP(=O)(OCC)N1CCCC(N)C1=O.O=C(O)C(F)(F)F` (mixture of isomers) [Compound 9]?
Answer: Log2-fold change (9/DMSO) [1]: -0.1649; Log2-fold change (9/DMSO) [2]: 0.8847; Log2-fold change (9/DMSO) [3]: -0.05307; Log2-fold change (9/DMSO) [4]: 0.606; Log2-fold change (9/DMSO) [5]: 1.078; Log2-fold change (9/DMSO) [6]: 0.6639; Log2-fold change (9/DMSO) [7]: 1.5735; Log2-fold change (9/DMSO) [8]: 0.5741; Log2-fold change (9/DMSO) [9]: -0.3942; Log2-fold change (9/DMSO) [10]: 0.4766; Log2-fold change (9/DMSO) [11]: 2.233; Log2-fold change (9/DMSO) [12]: 1.258; Log2-fold change (9/DMSO) [13]: 0.5182; Log2-fold change (9/DMSO) [14]: -0.3328; Log2-fold change (9/DMSO) [15]: 0.4327; Log2-fold change (9/DMSO) [16]: 0.4985; Log2-fold change (9/DMSO) [17]: 0.5243; Log2-fold change (9/DMSO) [18]: 4.8; Log2-fold change (9/DMSO) [19]: 0.4828; Log2-fold change (9/DMSO) [20]: 0.6086; Log2-fold change (9/DMSO) [21]: 0.03837; Log2-fold change (9/DMSO) [22]: 0.9458; Log2-fold change (9/DMSO) [23]: 0.2377; Log2-fold change (9/DMSO) [24]: 0.1532; Log2-fold change (9/DMSO) [25]: 0.5764; Log2-fold change (9/DMSO) [26]: 1.1495; Log2-fold change (9/DMSO) [27]: -0.3893; Log2-fold change (9/DMSO) [28]: -0.287; Log2-fold change (9/DMSO) [29]: 0.4333; Log2-fold change (9/DMSO) [30]: -0.1834; Log2-fold change (9/DMSO) [31]: -0.5895

Question: For `CCCCCc1ccc(SCCP(=O)(OCC)N2CCC[C@H](N)C2=O)cc1.O=C(O)C(F)(F)F` (some centres unmarked) [Compound 16], which “Log2-fold change (16/9)” value [1] is on record?
Answer: The value was 0.6272.

Question: What about the “Log2-fold change (16/9)” value [2] of the same molecule?
Answer: The value was -0.3162.

Question: What about the “Log2-fold change (16/9)” value [3] of the same molecule?
Answer: Its value is 0.07234.

Question: And the “Log2-fold change (16/9)” value [4]?
Answer: The value was -0.0326.

Question: And the “Log2-fold change (16/9)” value [5]?
Answer: The value was -1.02.

Question: What about the “Log2-fold change (16/9)” value [6] of the same molecule?
Answer: Its value is -2.001.

Question: And the “Log2-fold change (16/9)” value [7]?
Answer: The value was -2.215.

Question: And the “Log2-fold change (16/9)” value [8]?
Answer: The value was -1.553.

Question: What about the “Log2-fold change (16/9)” value [9] of the same molecule?
Answer: The value was 0.6165.

Question: What about the “Log2-fold change (16/9)” value [10] of the same molecule?
Answer: Its value is -0.2924.

Question: What about the “Log2-fold change (16/9)” value [11] of the same molecule?
Answer: The value was -0.05345.

Question: And the “Log2-fold change (16/9)” value [12]?
Answer: Its value is -1.045.

Question: What about the “Log2-fold change (16/9)” value [13] of the same molecule?
Answer: Its value is -0.4211.

Question: And the “Log2-fold change (16/9)” value [14]?
Answer: The value was -0.05498.

Question: What about the “Log2-fold change (16/9)” value [15] of the same molecule?
Answer: The value was -0.1709.

Question: And the “Log2-fold change (16/9)” value [16]?
Answer: Its value is -0.3112.

Question: What about the “Log2-fold change (16/9)” value [17] of the same molecule?
Answer: Its value is -0.09939.

Question: What about the “Log2-fold change (16/9)” value [18] of the same molecule?
Answer: The value was -0.8405.

Question: And the “Log2-fold change (16/9)” value [19]?
Answer: Its value is -0.5032.

Question: And the “Log2-fold change (16/9)” value [20]?
Answer: The value was -0.6819.

Question: And the “Log2-fold change (16/9)” value [21]?
Answer: The value was -1.788.

Question: What about the “Log2-fold change (16/9)” value [22] of the same molecule?
Answer: The value was -0.8733.

Question: What about the “Log2-fold change (16/9)” value [23] of the same molecule?
Answer: The value was 0.3661.

Question: What about the “Log2-fold change (16/9)” value [24] of the same molecule?
Answer: Its value is -1.084.

Question: What about the “Log2-fold change (16/9)” value [25] of the same molecule?
Answer: The value was -0.3964.

Question: What about the “Log2-fold change (16/9)” value [26] of the same molecule?
Answer: Its value is -0.827.

Question: And the “Log2-fold change (16/9)” value [27]?
Answer: The value was 1.34.

Question: What about the “Log2-fold change (16/9)” value [28] of the same molecule?
Answer: Its value is 0.6319.

Question: And the “Log2-fold change (16/9)” value [29]?
Answer: The value was 0.107.

Question: What about the “Log2-fold change (16/9)” value [30] of the same molecule?
Answer: Its value is 0.315.

Question: And the “Log2-fold change (16/9)” value [31]?
Answer: Its value is 0.1036.
